Values of other authors as cited in patent US9925200B2, “Stable formulations of testosterone undecanoate” (Merck Sharp & Dohme B.V., priority 2014, dated 2018).

Assays:
[1] = not given; remark: listed apart in the source

## CCCCCCCCCCC(=O)O[C@H]1CC[C@H]2[C@@H]3CCC4=CC(=O)CC[C@]4(C)[C@H]3CC[C@]12C [Testosterone undecanoate]
other
  Log P: 9.1
[1]
  water solubility: very low
